Reference: PMC8453901, “GLPG1205, a GPR84 Modulator: Safety, Pharmacokinetics, and Pharmacodynamics in Healthy Subjects” (Clinical Pharmacology in Drug Development, 2021)

Assay: Safety and tolerability, study 1 SAD part
Assay type: in vivo, human
Procedure: Safety and tolerability were assessed on the basis of adverse events (AEs), which were monitored throughout both studies. Additional safety assessments included vital signs (including supine [and standing in study 2] heart rate, systolic and diastolic blood pressure, and oral body temperature), 12‐lead electrocardiogram (ECG), clinical laboratory tests (hematology, coagulation [study 2 only], serum/plasma chemistry, urinalysis, urine drug screen, serology, and alcohol breath test), and a comprehensive physical examination. In the SAD part of study 1, clinical laboratory tests, physical examination, and vital signs were assessed at the screening visit, at the time of dosing (0 hours after dose), 24 hours after dosing and at follow‐up (7 to 10 days after the final dose). Vital signs were additionally observed 2 hours after dosing, and the 12‐lead ECG was additionally completed at 1, 2, 6, 8, and 12 hours after dosing. In the MAD part of study 1, all additional safety assessments were performed at screening; days 1, 2, 8, 14, and 15; and at follow‐up. In study 2, additional safety assessments were performed at screening (between 21 and 2 days before the first study drug administration); days 1, 2, 5, 10, 14, 15, and 20 (clinical laboratory tests were not performed on day 20); at early discontinuation; and at follow‐up. For study 2, renal function tests (measurement of estimated creatinine clearance rate using the Cockcroft‐Gault equation) were also included in the clinical laboratory tests for safety assessment.
In both studies, the safety analysis was descriptive and focused on changes from baseline and treatment‐emergent findings.

O=c1nc(OC[C@@H]2COCCO2)cc2n1CCc1cc(C#CC3CC3)ccc1-2 [GLPG1205, 9‐cyclopropylethynyl‐2‐((S)‐1‐[1,4]dioxan‐2‐ylmethoxy)‐6,7‐dihydropyrimido[6,1‐a]isoquinolin‐4‐one]
subjects with nausea (most frequent TEAE) (SAD part, all doses): 4 subjects | Any TEAE (single 10 mg (n = 6)): 2 (33.3) number of subjects (%) | Dizziness (TEAE) (single 10 mg (n = 6)): 0 number of subjects (%) | Gastrointestinal disorders (TEAE) (single 10 mg (n = 6)): 0 number of subjects (%) | Headache (TEAE) (single 10 mg (n = 6)): 1 (16.7) number of subjects (%) | Hot flush (TEAE) (single 10 mg (n = 6)): 0 number of subjects (%) | Infections and infestations (TEAE) (single 10 mg (n = 6)): 1 (16.7) number of subjects (%) | Musculoskeletal and connective tissue disorders (TEAE) (single 10 mg (n = 6)): 0 number of subjects (%) | Nausea (TEAE) (single 10 mg (n = 6)): 0 number of subjects (%) | Nervous system disorders (TEAE) (single 10 mg (n = 6)): 1 (16.7) number of subjects (%) | Oropharyngeal pain (TEAE) (single 10 mg (n = 6)): 0 number of subjects (%) | Respiratory, thoracic, and mediastinal disorders (TEAE) (single 10 mg (n = 6)): 0 number of subjects (%) | Somnolence (TEAE) (single 10 mg (n = 6)): 0 number of subjects (%) | Torticollis (TEAE) (single 10 mg (n = 6)): 0 number of subjects (%) | Urethritis chlamydial (TEAE) (single 10 mg (n = 6)): 1 (16.7) number of subjects (%) | Vascular disorders (TEAE) (single 10 mg (n = 6)): 0 number of subjects (%) | Any TEAE (single 30 mg (n = 6)): 1 (16.7) number of subjects (%) | Dizziness (TEAE) (single 30 mg (n = 6)): 0 number of subjects (%) | Gastrointestinal disorders (TEAE) (single 30 mg (n = 6)): 0 number of subjects (%) | Headache (TEAE) (single 30 mg (n = 6)): 0 number of subjects (%) | Hot flush (TEAE) (single 30 mg (n = 6)): 0 number of subjects (%) | Infections and infestations (TEAE) (single 30 mg (n = 6)): 0 number of subjects (%) | Musculoskeletal and connective tissue disorders (TEAE) (single 30 mg (n = 6)): 0 number of subjects (%) | Nausea (TEAE) (single 30 mg (n = 6)): 0 number of subjects (%) | Nervous system disorders (TEAE) (single 30 mg (n = 6)): 1 (16.7) number of subjects (%) | Oropharyngeal pain (TEAE) (single 30 mg (n = 6)): 0 number of subjects (%) | Respiratory, thoracic, and mediastinal disorders (TEAE) (single 30 mg (n = 6)): 0 number of subjects (%) | Somnolence (TEAE) (single 30 mg (n = 6)): 1 (16.7) number of subjects (%) | Torticollis (TEAE) (single 30 mg (n = 6)): 0 number of subjects (%) | Urethritis chlamydial (TEAE) (single 30 mg (n = 6)): 0 number of subjects (%) | Vascular disorders (TEAE) (single 30 mg (n = 6)): 0 number of subjects (%) | Any TEAE (single 90 mg (n = 6)): 0 number of subjects (%) | Dizziness (TEAE) (single 90 mg (n = 6)): 0 number of subjects (%) | Gastrointestinal disorders (TEAE) (single 90 mg (n = 6)): 0 number of subjects (%) | Headache (TEAE) (single 90 mg (n = 6)): 0 number of subjects (%) | Hot flush (TEAE) (single 90 mg (n = 6)): 0 number of subjects (%) | Infections and infestations (TEAE) (single 90 mg (n = 6)): 0 number of subjects (%) | Musculoskeletal and connective tissue disorders (TEAE) (single 90 mg (n = 6)): 0 number of subjects (%) | Nausea (TEAE) (single 90 mg (n = 6)): 0 number of subjects (%) | Nervous system disorders (TEAE) (single 90 mg (n = 6)): 0 number of subjects (%) | Oropharyngeal pain (TEAE) (single 90 mg (n = 6)): 0 number of subjects (%) | Respiratory, thoracic, and mediastinal disorders (TEAE) (single 90 mg (n = 6)): 0 number of subjects (%) | Somnolence (TEAE) (single 90 mg (n = 6)): 0 number of subjects (%) | Torticollis (TEAE) (single 90 mg (n = 6)): 0 number of subjects (%) | Urethritis chlamydial (TEAE) (single 90 mg (n = 6)): 0 number of subjects (%) | Vascular disorders (TEAE) (single 90 mg (n = 6)): 0 number of subjects (%) | Any TEAE (single 200 mg (n = 6)): 1 (16.7) number of subjects (%) | Dizziness (TEAE) (single 200 mg (n = 6)): 0 number of subjects (%) | Gastrointestinal disorders (TEAE) (single 200 mg (n = 6)): 1 (16.7) number of subjects (%) | Headache (TEAE) (single 200 mg (n = 6)): 0 number of subjects (%) | Hot flush (TEAE) (single 200 mg (n = 6)): 0 number of subjects (%) | Infections and infestations (TEAE) (single 200 mg (n = 6)): 0 number of subjects (%) | Musculoskeletal and connective tissue disorders (TEAE) (single 200 mg (n = 6)): 0 number of subjects (%) | Nausea (TEAE) (single 200 mg (n = 6)): 1 (16.7) number of subjects (%) | Nervous system disorders (TEAE) (single 200 mg (n = 6)): 0 number of subjects (%) | Oropharyngeal pain (TEAE) (single 200 mg (n = 6)): 0 number of subjects (%) | Respiratory, thoracic, and mediastinal disorders (TEAE) (single 200 mg (n = 6)): 0 number of subjects (%) | Somnolence (TEAE) (single 200 mg (n = 6)): 0 number of subjects (%) | Torticollis (TEAE) (single 200 mg (n = 6)): 0 number of subjects (%) | Urethritis chlamydial (TEAE) (single 200 mg (n = 6)): 0 number of subjects (%) | Vascular disorders (TEAE) (single 200 mg (n = 6)): 0 number of subjects (%) | Any TEAE (single 400 mg (n = 6)): 3 (50.0) number of subjects (%) | Dizziness (TEAE) (single 400 mg (n = 6)): 0 number of subjects (%) | Gastrointestinal disorders (TEAE) (single 400 mg (n = 6)): 1 (16.7) number of subjects (%) | Headache (TEAE) (single 400 mg (n = 6)): 1 (16.7) number of subjects (%) | Hot flush (TEAE) (single 400 mg (n = 6)): 1 (16.7) number of subjects (%) | Infections and infestations (TEAE) (single 400 mg (n = 6)): 0 number of subjects (%) | Musculoskeletal and connective tissue disorders (TEAE) (single 400 mg (n = 6)): 1 (16.7) number of subjects (%) | Nausea (TEAE) (single 400 mg (n = 6)): 1 (16.7) number of subjects (%) | Nervous system disorders (TEAE) (single 400 mg (n = 6)): 1 (16.7) number of subjects (%) | Oropharyngeal pain (TEAE) (single 400 mg (n = 6)): 0 number of subjects (%) | Respiratory, thoracic, and mediastinal disorders (TEAE) (single 400 mg (n = 6)): 0 number of subjects (%) | Somnolence (TEAE) (single 400 mg (n = 6)): 0 number of subjects (%) | Torticollis (TEAE) (single 400 mg (n = 6)): 1 (16.7) number of subjects (%) | Urethritis chlamydial (TEAE) (single 400 mg (n = 6)): 0 number of subjects (%) | Vascular disorders (TEAE) (single 400 mg (n = 6)): 1 (16.7) number of subjects (%) | Any TEAE (single 600 mg (n = 6)): 0 number of subjects (%) | Dizziness (TEAE) (single 600 mg (n = 6)): 0 number of subjects (%) | Gastrointestinal disorders (TEAE) (single 600 mg (n = 6)): 0 number of subjects (%) | Headache (TEAE) (single 600 mg (n = 6)): 0 number of subjects (%) | Hot flush (TEAE) (single 600 mg (n = 6)): 0 number of subjects (%) | Infections and infestations (TEAE) (single 600 mg (n = 6)): 0 number of subjects (%) | Musculoskeletal and connective tissue disorders (TEAE) (single 600 mg (n = 6)): 0 number of subjects (%) | Nausea (TEAE) (single 600 mg (n = 6)): 0 number of subjects (%) | Nervous system disorders (TEAE) (single 600 mg (n = 6)): 0 number of subjects (%) | Oropharyngeal pain (TEAE) (single 600 mg (n = 6)): 0 number of subjects (%) | Respiratory, thoracic, and mediastinal disorders (TEAE) (single 600 mg (n = 6)): 0 number of subjects (%) | Somnolence (TEAE) (single 600 mg (n = 6)): 0 number of subjects (%) | Torticollis (TEAE) (single 600 mg (n = 6)): 0 number of subjects (%) | Urethritis chlamydial (TEAE) (single 600 mg (n = 6)): 0 number of subjects (%) | Vascular disorders (TEAE) (single 600 mg (n = 6)): 0 number of subjects (%) | Any TEAE (single 800 mg (n = 6)): 5 (83.3) number of subjects (%) | Dizziness (TEAE) (single 800 mg (n = 6)): 1 (16.7) number of subjects (%) | Gastrointestinal disorders (TEAE) (single 800 mg (n = 6)): 2 (33.3) number of subjects (%) | Headache (TEAE) (single 800 mg (n = 6)): 1 (16.7) number of subjects (%) | Hot flush (TEAE) (single 800 mg (n = 6)): 0 number of subjects (%) | Infections and infestations (TEAE) (single 800 mg (n = 6)): 0 number of subjects (%) | Musculoskeletal and connective tissue disorders (TEAE) (single 800 mg (n = 6)): 0 number of subjects (%) | Nausea (TEAE) (single 800 mg (n = 6)): 2 (33.3) number of subjects (%) | Nervous system disorders (TEAE) (single 800 mg (n = 6)): 3 (50.0) number of subjects (%) | Oropharyngeal pain (TEAE) (single 800 mg (n = 6)): 2 (33.3) number of subjects (%) | Respiratory, thoracic, and mediastinal disorders (TEAE) (single 800 mg (n = 6)): 2 (33.3) number of subjects (%) | Somnolence (TEAE) (single 800 mg (n = 6)): 1 (16.7) number of subjects (%) | Torticollis (TEAE) (single 800 mg (n = 6)): 0 number of subjects (%) | Urethritis chlamydial (TEAE) (single 800 mg (n = 6)): 0 number of subjects (%) | Vascular disorders (TEAE) (single 800 mg (n = 6)): 0 number of subjects (%)
